From US10538555B2, “Macrocyclic inhibitors of the PD-1/PD-L1 and CD80(B7-1)/PD-L1 protein/protein interactions” (BRISTOL-MYERS SQUIBB COMPANY, priority 2014, dated 2020)
pIC50: −log10 of the molar value. *1 amine or outer side, *2 acyl side, *3 side chain or, on linkers, in order; H or OH if unused. Where a SMILES comes first, the peptide text is derived from it. Bridges are numbered along the chain shown (N, C = ends). [ ]: non-standard residue; d: D form. ξ: configuration not given here. Trp(1-CH2COOH) = N[C@@H](Cc1cn(CC(=O)O)c2ccccc12)C(=O)O; Trp(βS-Me) = C[C@@H](c1c[nH]c2ccccc12)[C@H](N)C(=O)O; Phe(3,4,5-F3) = N[C@@H](Cc1cc(F)c(F)c(F)c1)C(=O)O; NMePhe(4-F) = CN[C@@H](Cc1ccc(F)cc1)C(=O)O; Phe(4-F) = N[C@@H](Cc1ccc(F)cc1)C(=O)O; d(cisHyp) = O=C(O)[C@H]1C[C@@H](O)CN1; Phe(2-F) = N[C@@H](Cc1ccccc1F)C(=O)O; Hyp = O=C(O)[C@@H]1C[C@@H](O)CN1; NMeF = CN[C@@H](Cc1ccccc1)C(=O)O; X1 = O=C([C@H]1COCCN1[*:1])[*:2]; dHyp = O=C(O)[C@H]1C[C@H](O)CN1; NMehSer = CN[C@@H](CCO)C(=O)O; NMeNle = CCCC[C@H](NC)C(=O)O; dNle = CCCC[C@@H](N)C(=O)O; dPip = O=C(O)[C@H]1CCCCN1; hSer = N[C@@H](CCO)C(=O)O; NMeA = CN[C@@H](C)C(=O)O; Orn = NCCC[C@H](N)C(=O)O; Dab = NCC[C@H](N)C(=O)O; Dap = NC[C@H](N)C(=O)O; ξC = NC(CS)C(=O)O

biological target: T1, Human PD-L1/PD-1 (Homo sapiens, UniProt Q9NZQ7); experiment: HTRF Human PD-L1/PD-1 binding assay (PD-1-Ig/PD-L1-His); conditions: PD-L1-His 10 nM, PD-1-Ig 20 nM; class symbol; read-out: HTRF Human PD-L1/PD-1 Binding Assay IC50 Range
T1 construct: TVMV protease cleavage site (C); made in house; host or cells: HEK293T cells
In short: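 Soluble HEK293T-expressed proteins: hPD-L1-His 10 nM, hPD-1-Ig 20 nM final. Cpd + PD-L1 15 min, + PD-1 15 min, + Eu anti-Ig 1 nM/APC anti-His 20 nM 30 min. Buffer dPBS, 0.1% BSA, 0.05% Tween-20. TR-FRET 665/620.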

T1 sequence (Q9NZQ7 with tags, fused parts or gaps): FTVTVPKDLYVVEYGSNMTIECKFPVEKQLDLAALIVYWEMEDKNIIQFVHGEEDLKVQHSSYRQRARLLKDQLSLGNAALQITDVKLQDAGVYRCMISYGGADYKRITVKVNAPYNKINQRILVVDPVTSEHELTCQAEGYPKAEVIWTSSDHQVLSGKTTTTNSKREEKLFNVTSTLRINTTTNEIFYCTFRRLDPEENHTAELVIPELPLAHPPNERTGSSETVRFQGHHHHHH

| pIC50 | SMILES |
| --- | --- |
| 5.00 to 6.00 | CCCC[C@H]1NC(=O)[C@H](Cc2c[nH]c3ccccc23)NC(=O)[C@H](CO)NC(=O)[C@H](Cc2c[nH]c3ccccc23)NC(=O)[C@@H]2C[C@@H](O)CN2C(=O)[C@H](CCCN)NC(=O)[C@H](Cc2cnc[nH]2)NC(=O)[C@@H]2CCCN2C(=O)[C@H](CC(N)=O)NC(=O)[C@H](C)N(C)C(=O)[C@H](Cc2ccc(O)cc2)NC(=O)CSCC(C(=O)NCC(N)=O)NC(=O)[C@H](CCC(=O)O)NC(=O)[C@H](CCCC)N(C)C1=O (stereo partly drawn) [Example 10129] ({CH2CO}-Y[NMeA]NPH[Orn][Hyp]WSW[dNle][NMeNle]E[ξC]G-NH2; thioether N-14) |
| 8.00 to 9.00 | CCCC[C@H]1C(=O)N2CCC[C@@H]2C(=O)N[C@@H](CC(=O)O)C(=O)N[C@@H](C(C)C)C(=O)N(C)[C@@H](Cc2ccc(F)cc2)C(=O)N[C@@H](CCCN)C(=O)N2CCC[C@@H]2C(=O)N[C@@H](Cc2c[nH]c3ccccc23)C(=O)N[C@@H](Cc2ccc(O)cc2)C(=O)N[C@@H](CC(C)C)C(=O)N[C@H](C(=O)NCC(N)=O)CSCC(=O)N[C@@H](Cc2ccc(F)cc2)C(=O)N(C)[C@@H](Cc2ccccc2)C(=O)N1C [Example 10108] ({CH2CO}-[Phe(4-F)][NMeF][NMeNle][dP]DV[NMePhe(4-F)][Orn][dP]WYLCG-NH2; thioether N-13) |
| 8.00 to 9.00 | CCCC[C@H]1C(=O)N2CCC[C@@H]2C(=O)N[C@@H](CC(N)=O)C(=O)N[C@@H](C(C)C)C(=O)N(C)[C@@H](Cc2ccccc2)C(=O)N[C@@H](CCC(=O)O)C(=O)N2CCCC[C@@H]2C(=O)N[C@@H](Cc2c[nH]c3ccccc23)C(=O)N[C@@H](Cc2ccc(O)cc2)C(=O)N[C@@H](CC(C)C)C(=O)N[C@H](C(=O)NCC(N)=O)CSCC(=O)N[C@@H](Cc2cc(F)c(F)c(F)c2)C(=O)N(C)[C@@H](Cc2ccc(F)cc2)C(=O)N1C [Example 10579] ({CH2CO}-[Phe(3,4,5-F3)][NMePhe(4-F)][NMeNle][dP]NV[NMeF]E[dPip]WYLCG-NH2; thioether N-13) |
| 8.00 to 9.00 | CCCC[C@H]1C(=O)N(C)[C@@H](CCCC)C(=O)N[C@@H](CCCNC(=N)N)C(=O)N[C@H](C(=O)NCC(N)=O)CSCC(=O)N[C@@H](Cc2ccc(O)cc2)C(=O)N(C)[C@@H](C)C(=O)N[C@@H](CC(N)=O)C(=O)N2CCC[C@H]2C(=O)N[C@@H](CO)C(=O)N[C@@H](CCO)C(=O)N2C[C@H](O)C[C@H]2C(=O)N[C@@H](Cc2c[nH]c3ccccc23)C(=O)N[C@@H](CCO)C(=O)N[C@@H](Cc2cn(CC(=O)O)c3ccccc23)C(=O)N1C [Example 6213] ({CH2CO}-Y[NMeA]NPS[hSer][Hyp]W[hSer][Trp(1-CH2COOH)][NMeNle][NMeNle]RCG-NH2; thioether N-14) |
| 8.00 to 9.00 | CCCC[C@H]1C(=O)N(C)[C@@H](CCCC)C(=O)N[C@@H](CC(C)C)C(=O)N[C@H](C(=O)NCC(N)=O)CSCC(=O)N[C@@H](Cc2ccc(O)cc2)C(=O)N(C)[C@@H](C)C(=O)N[C@@H](CC(N)=O)C(=O)N(C)[C@@H](C)C(=O)N[C@@H](Cc2cnc[nH]2)C(=O)N[C@@H](CCC(N)=O)C(=O)N2C[C@H](O)C[C@H]2C(=O)N[C@@H](Cc2c[nH]c3ccccc23)C(=O)N[C@@H](CO)C(=O)N[C@@H](Cc2c[nH]c3ccccc23)C(=O)N1C [Example 5234] ({CH2CO}-Y[NMeA]N[NMeA]HQ[Hyp]WSW[NMeNle][NMeNle]LCG-NH2; thioether N-14) |
| 8.00 to 9.00 | CCCC[C@H]1C(=O)N(C)[C@@H](CCCC)C(=O)N[C@@H](CC(C)C)C(=O)N[C@H](C(N)=O)CSCC(=O)N[C@@H](Cc2ccc(O)cc2)C(=O)N(C)[C@@H](C)C(=O)N[C@@H](CC(N)=O)C(=O)N2CCC[C@H]2C(=O)N[C@@H](CN)C(=O)N[C@@H](CC(C)C)C(=O)N2C[C@H](O)C[C@H]2C(=O)N[C@@H](Cc2c[nH]c3ccccc23)C(=O)N[C@@H](CCC(=O)O)C(=O)N[C@@H](Cc2cn(CC(=O)O)c3ccccc23)C(=O)N1C [Example 6203] ({CH2CO}-Y[NMeA]NP[Dap]L[Hyp]WE[Trp(1-CH2COOH)][NMeNle][NMeNle]LC-NH2; thioether N-14) |
| 8.00 to 9.00 | CCCC[C@H]1C(=O)N(C)[C@@H](CCCC)C(=O)N[C@@H](CCCNC(=N)N)C(=O)N[C@H](C(N)=O)CSCC(=O)N[C@@H](Cc2ccc(O)cc2)C(=O)N(C)[C@@H](C)C(=O)N[C@@H](CC(N)=O)C(=O)N2CCC[C@H]2C(=O)N[C@@H](CC(N)=O)C(=O)N[C@@H](CC(C)C)C(=O)N2C[C@H](O)C[C@H]2C(=O)N[C@@H]([C@@H](C)c2c[nH]c3ccccc23)C(=O)N[C@@H](CO)C(=O)N[C@@H](Cc2c[nH]c3ccccc23)C(=O)N1C [Example 10531] ({CH2CO}-Y[NMeA]NPNL[Hyp][Trp(βS-Me)]SW[NMeNle][NMeNle]RC-NH2; thioether N-14) |
| 8.00 to 9.00 | CCCC[C@H]1C(=O)N(C)[C@@H](CCOC)C(=O)N[C@@H](CN)C(=O)N[C@H](C(=O)NCC(N)=O)CSCC(=O)N[C@@H](Cc2ccc(O)cc2)C(=O)N(C)[C@@H](C)C(=O)N[C@@H](CC(=O)O)C(=O)N2CCC[C@H]2C(=O)N[C@@H](Cc2c[nH]cn2)C(=O)N[C@@H](CCC(N)=O)C(=O)N2C[C@H](O)C[C@H]2C(=O)N[C@@H](Cc2c[nH]c3ccccc23)C(=O)N[C@@H](CO)C(=O)N[C@@H](Cc2c[nH]c3ccccc23)C(=O)N1C [Example 10145] ({CH2CO}-Y[NMeA]DPHQ[Hyp]WSW[NMeNle][NMehSer](Me)[Dap]CG-NH2; thioether N-14) |
| 8.00 to 9.00 | CCCC[C@H]1C(=O)N2C[C@H](O)C[C@@H]2C(=O)N[C@@H](CC(=O)O)C(=O)N[C@@H](C(C)C)C(=O)N(C)[C@@H](Cc2ccccc2)C(=O)N[C@@H](Cc2ccc(O)cc2)C(=O)N2CCOC[C@@H]2C(=O)N[C@@H](Cc2c[nH]c3ccccc23)C(=O)N[C@@H](Cc2ccccc2F)C(=O)N[C@@H](CC(C)C)C(=O)N[C@H](C(=O)NCC(N)=O)CSCC(=O)N[C@@H](Cc2cc(F)c(F)c(F)c2)C(=O)N(C)[C@@H](Cc2ccccc2)C(=O)N1C [Example 10195] ({CH2CO}-[Phe(3,4,5-F3)][NMeF][NMeNle][d(cisHyp)]DV[NMeF]Y[X1]W[Phe(2-F)]LCG-NH2; thioether N-13) |
| 8.00 to 9.00 | CCCC[C@H]1C(=O)N2C[C@@H](O)C[C@@H]2C(=O)N[C@@H](CC(=O)O)C(=O)N[C@@H](C(C)C)C(=O)N(C)[C@@H](Cc2ccccc2)C(=O)N[C@@H](Cc2ccc(O)cc2)C(=O)N2C[C@@H](O)C[C@@H]2C(=O)N[C@@H](Cc2c[nH]c3ccccc23)C(=O)N[C@@H](Cc2ccc(O)cc2)C(=O)N[C@@H](CCCN)C(=O)N[C@H](C(=O)NCC(N)=O)CSCC(=O)N[C@@H](Cc2cc(F)c(F)c(F)c2)C(=O)N(C)[C@@H](Cc2ccccc2)C(=O)N1C [Example 9274] ({CH2CO}-[Phe(3,4,5-F3)][NMeF][NMeNle][dHyp]DV[NMeF]Y[dHyp]WY[Orn]CG-NH2; thioether N-13) |
| 8.00 to 9.00 | CCCC[C@H]1C(=O)N(C)[C@@H](CCCC)C(=O)N[C@@H](CO)C(=O)N[C@H](C(=O)NCC(N)=O)CSCC(=O)N[C@@H](Cc2ccc(OC)cc2)C(=O)N(C)[C@@H](C)C(=O)N[C@@H](CC(N)=O)C(=O)N2CCC[C@H]2C(=O)N[C@@H](Cc2c[nH]cn2)C(=O)N[C@@H](CCC(N)=O)C(=O)N2C[C@H](O)C[C@H]2C(=O)N[C@@H](Cc2c[nH]c3ccccc23)C(=O)N[C@@H](CO)C(=O)N[C@@H](Cc2cn(CC(=O)O)c3ccccc23)C(=O)N1C [Example 7143] ({CH2CO}-Y(Me)[NMeA]NPHQ[Hyp]WS[Trp(1-CH2COOH)][NMeNle][NMeNle]SCG-NH2; thioether N-14) |
| 7.00 to 8.00 | CCCC[C@H]1C(=O)N(C)[C@@H](CCCC)C(=O)N[C@@H](CCC(=O)O)C(=O)N[C@H](C(=O)NCC(N)=O)CSCC(=O)N[C@@H](Cc2ccc(O)cc2)C(=O)N(C)[C@@H](C)C(=O)N[C@@H](CC(=O)O)C(=O)N2CCC[C@H]2C(=O)N[C@@H](CN)C(=O)N[C@@H](CC(C)C)C(=O)N2C[C@H](O)C[C@H]2C(=O)N[C@@H](Cc2c[nH]c3ccccc23)C(=O)N[C@@H](CCC(=O)O)C(=O)N[C@@H](Cc2c[nH]c3ccccc23)C(=O)N1C [Example 5257] ({CH2CO}-Y[NMeA]DP[Dap]L[Hyp]WEW[NMeNle][NMeNle]ECG-NH2; thioether N-14) |
| 7.00 to 8.00 | CCCC[C@H]1C(=O)N2C[C@H](O)C[C@@H]2C(=O)N[C@@H](CC(=O)O)C(=O)N[C@@H](C(C)C)C(=O)N(C)[C@@H](Cc2ccccc2)C(=O)N[C@@H](CC(=O)O)C(=O)N2C[C@H](O)C[C@@H]2C(=O)N[C@@H](Cc2c[nH]c3ccccc23)C(=O)N[C@@H](Cc2ccc(O)cc2)C(=O)N[C@@H](CCC(N)=O)C(=O)N[C@H](C(=O)NCC(N)=O)CSCC(=O)N[C@@H](Cc2cc(F)c(F)c(F)c2)C(=O)N(C)[C@@H](Cc2ccccc2)C(=O)N1C [Example 9351] ({CH2CO}-[Phe(3,4,5-F3)][NMeF][NMeNle][d(cisHyp)]DV[NMeF]D[d(cisHyp)]WYQCG-NH2; thioether N-13) |
| 8.00 to 9.00 | CCCC[C@H]1C(=O)N2C[C@H](O)C[C@@H]2C(=O)N[C@@H](CC(=O)O)C(=O)N[C@@H](C(C)C)C(=O)N(C)[C@@H](Cc2ccccc2)C(=O)N[C@@H](CC(=O)O)C(=O)N2C[C@H](O)C[C@@H]2C(=O)N[C@@H](Cc2c[nH]c3ccccc23)C(=O)N[C@@H](Cc2ccc(O)cc2)C(=O)N[C@@H](CC(N)=O)C(=O)N[C@H](C(=O)NCC(N)=O)CSCC(=O)N[C@@H](Cc2cc(F)c(F)c(F)c2)C(=O)N(C)[C@@H](Cc2ccccc2)C(=O)N1C [Example 9352] ({CH2CO}-[Phe(3,4,5-F3)][NMeF][NMeNle][d(cisHyp)]DV[NMeF]D[d(cisHyp)]WYNCG-NH2; thioether N-13) |

same assay, conditions: PD-L1-His 10 nM, PD-1-Ig 20 nM; read-out: HTRF Human PD-L1/PD-1 Binding Assay IC50

| pIC50 | SMILES |
| --- | --- |
| 7.96 | CCCC[C@H]1C(=O)N2C[C@H](O)C[C@@H]2C(=O)N[C@@H](CC(=O)O)C(=O)N[C@@H](C(C)C)C(=O)N(C)[C@@H](Cc2ccccc2)C(=O)N[C@@H](CC(=O)O)C(=O)N2C[C@H](O)C[C@@H]2C(=O)N[C@@H](Cc2c[nH]c3ccccc23)C(=O)N[C@@H](Cc2ccc(O)cc2)C(=O)N[C@@H](CCN)C(=O)N[C@H](C(=O)NCC(N)=O)CSCC(=O)N[C@@H](Cc2cc(F)c(F)c(F)c2)C(=O)N(C)[C@@H](Cc2ccccc2)C(=O)N1C [Example 9347] ({CH2CO}-[Phe(3,4,5-F3)][NMeF][NMeNle][d(cisHyp)]DV[NMeF]D[d(cisHyp)]WY[Dab]CG-NH2; thioether N-13) |
